Test results published in US8541460B2, “PDK-1/Akt signaling inhibitors” (The Ohio State University, priority 2003, dated 2013).

Legend:
Type in all cases: cell-based
[1] = tested on: OVCAR-4; assay: NCI DTP cell line screen (SRB), Ovarian Cancer
Experimental: (§1) Screening of compounds 70 and 71 against several cancer cell lines The human tumor cell lines of the cancer screening panel are grown in RPMI 1640 medium containing 5% fetal bovine serum and 2 mM L-glutamine. For a typical screening experiment, cells are inoculated into 96 well microtiter plates in 100 μL at plating densities ranging from 5,000 to 40,000 cells/well depending on the doubling time of individual cell lines. After cell inoculation, the microtiter plates are incubated at 37° C., 5% CO2, 95% air and 100% relative humidity for 24 h prior to addition of experimental drugs.
(§2) After 24 h, two plates of each cell line are fixed in situ with TCA, to represent a measurement of the cell population for each cell line at the time of drug addition (Tz). Experimental drugs are solubilized in dimethyl sulfoxide at 400-fold the desired final maximum test concentration and stored frozen prior to use. At the time of drug addition, an aliquot of frozen concentrate is thawed and diluted to twice the desired final maximum test concentration with complete medium containing 50 μg/ml gentamicin. Additional four, 10-fold or ½ log serial dilutions are made to provide a total of five drug concentrations plus control. Aliquots of 100 μl of these different drug dilutions are added to the appropriate microtiter wells already containing 100 μl of medium, resulting in the required final drug concentrations.
(§3) Following drug addition, the plates are incubated for an additional 48 h at 37° C., 5% CO2, 95% air, and 100% relative humidity. For adherent cells, the assay is terminated by the addition of cold TCA. Cells are fixed in situ by the gentle addition of 50 μl of cold 50% (w/v) TCA (final concentration, 10% TCA) and incubated for 60 minutes at 4° C. The supernatant is discarded, and the plates are washed five times with tap water and air dried. Sulforhodamine B (SRB) solution (100 μl) at 0.4% (w/v) in 1% acetic acid is added to each well, and plates are incubated for 10 minutes at room temperature. After staining, unbound dye is removed by washing five times with 1% acetic acid and the plates are air dried. Bound stain is subsequently solubilized with 10 mM trizma base, and the absorbance is read on an automated plate reader at a wavelength of 515 nm. For suspension cells, the methodology is the same except that the assay is terminated by fixing settled cells at the bottom of the wells by gently adding 50 μl of 80% TCA (final concentration, 16% TCA). Using the seven absorbance measurements [time zero, (Tz), control growth, (C), and test growth in the presence of drug at the five concentration levels (Ti)], the percentage growth is calculated at each of the drug concentrations levels. Percentage growth inhibition is calculated as: [(Ti−Tz)/(C−Tz)]×100 for concentrations for which Ti>/=Tz [(Ti−Tz)/Tz]×100 for concentrations for which Ti<Tz
(§4) Three dose response parameters are calculated for each experimental agent. […] The drug concentration resulting in total growth inhibition (TGI) is calculated from Ti=Tz. […] Values are calculated for each of these three parameters if the level of activity is reached; however, if the effect is not reached or is exceeded, the value for that parameter is expressed as greater or less than the maximum or minimum concentration tested.
(§5) The methods described were used to test compounds 70 and 71 on a panel of sixty cell lines under a screening service provided by the Developmental Therapeutics Program at the National Institutes of Health. Shown in FIG. 1C are 1, RPMI-8226 leukemia cells; 2; NCI-H322M non-small cell lung cancer cells; 3, HT29 colon cancer cells; 4, U251 CNS cancer cells; 5, SK-MEL-28 melanoma cancer cells; 6, SK-OV-3 ovarian cancer cells; 7, RXF 393 renal cancer cells; 8, PC-3 prostate cancer cells; 9, MDA-MB-231 breast cancer cells.

[2] = tested on: IGROV1; assay: NCI DTP cell line screen (SRB), Ovarian Cancer
Experimental: as §1, §2, §3, §4, §5

[3] = tested on: OVCAR-8; assay: NCI DTP cell line screen (SRB), Ovarian Cancer; settings: OVCAR 8
Experimental: as §1, §2, §3, §4, §5

[4] = tested on: A549/ATCC; assay: NCI DTP cell line screen (SRB), Non-Small Cell Lung Cancer
Experimental: as §1, §2, §3, §4, §5

[5] = tested on: NCI-H460; assay: as above
Experimental: as §1, §2, §3, §4, §5

[6] = tested on: NCI-H23; assay: as above
Experimental: as §1, §2, §3, §4, §5

[7] = tested on: EKVX; assay: as above
Experimental: as §1, §2, §3, §4, §5

[8] = tested on: HOP-62; assay: as above
Experimental: as §1, §2, §3, §4, §5

[9] = read-out: LC50 (the source's name)

N=C(N)Nc1ccc(-n2nc(C(F)(F)F)cc2-c2ccc3c(ccc4ccccc43)c2)cc1 [Compound 71, 4-[5-(2-Phenanthrenyl)-3-(trifluoromethyl)-1H-pyrazol-1-yl]-phenyl-guanidine]
GI50 [1]: 1310 nM
TGI [1]: 2.58E−06
Mean Optical Densities ([1]; Log10 Concentration −4.0): 0.179
Percent Growth ([1]; Log10 Concentration −4.0): −66%
Mean Optical Densities ([1]; Log10 Concentration −5.0): −0.001
Percent Growth ([1]; Log10 Concentration −5.0): −100%
Mean Optical Densities ([1]; Log10 Concentration −6.0): 0.945
Percent Growth ([1]; Log10 Concentration −6.0): 70%
Mean Optical Densities ([1]; Log10 Concentration −7.0): 0.999
Percent Growth ([1]; Log10 Concentration −7.0): 79%
Mean Optical Densities ([1]; Log10 Concentration −8.0): 1.011
Percent Growth ([1]; Log10 Concentration −8.0): 81%
CC50 [1, 9]: 5080 nM
GI50 [2]: 1070 nM
TGI [2]: 2.26E−06
Mean Optical Densities ([2]; Log10 Concentration −4.0): 0.216
Percent Growth ([2]; Log10 Concentration −4.0): −53%
Mean Optical Densities ([2]; Log10 Concentration −5.0): −0.039
Percent Growth ([2]; Log10 Concentration −5.0): −100%
Mean Optical Densities ([2]; Log10 Concentration −6.0): 0.806
Percent Growth ([2]; Log10 Concentration −6.0): 55%
Mean Optical Densities ([2]; Log10 Concentration −7.0): 0.983
Percent Growth ([2]; Log10 Concentration −7.0): 83%
Mean Optical Densities ([2]; Log10 Concentration −8.0): 0.997
Percent Growth ([2]; Log10 Concentration −8.0): 85%
CC50 [2, 9]: 4750 nM
GI50 [3]: 1690 nM
TGI [3]: 3.05E−06
Mean Optical Densities ([3]; Log10 Concentration −4.0): 0.126
Percent Growth ([3]; Log10 Concentration −4.0): −69%
Mean Optical Densities ([3]; Log10 Concentration −5.0): −0.001
Percent Growth ([3]; Log10 Concentration −5.0): −100%
Mean Optical Densities ([3]; Log10 Concentration −6.0): 0.934
Percent Growth ([3]; Log10 Concentration −6.0): 94%
Mean Optical Densities ([3]; Log10 Concentration −7.0): 0.946
Percent Growth ([3]; Log10 Concentration −7.0): 96%
Mean Optical Densities ([3]; Log10 Concentration −8.0): 0.923
Percent Growth ([3]; Log10 Concentration −8.0): 92%
CC50 [3, 9]: 5520 nM
GI50 [4]: 1680 nM
TGI [4]: 3.04E−06
Mean Optical Densities ([4]; Log10 Concentration −4.0): 0.135
Percent Growth ([4]; Log10 Concentration −4.0): −63%
Mean Optical Densities ([4]; Log10 Concentration −5.0): −0.032
Percent Growth ([4]; Log10 Concentration −5.0): −100%
Mean Optical Densities ([4]; Log10 Concentration −6.0): 1.121
Percent Growth ([4]; Log10 Concentration −6.0): 93%
Mean Optical Densities ([4]; Log10 Concentration −7.0): 1.145
Percent Growth ([4]; Log10 Concentration −7.0): 96%
Mean Optical Densities ([4]; Log10 Concentration −8.0): 1.140
Percent Growth ([4]; Log10 Concentration −8.0): 96%
CC50 [4, 9]: 5510 nM
GI50 [5]: 1640 nM
TGI [5]: 3.04E−06
Mean Optical Densities ([5]; Log10 Concentration −4.0): 0.257
Percent Growth ([5]; Log10 Concentration −4.0): −20%
Mean Optical Densities ([5]; Log10 Concentration −5.0): 0.011
Percent Growth ([5]; Log10 Concentration −5.0): −97%
Mean Optical Densities ([5]; Log10 Concentration −6.0): 1.650
Percent Growth ([5]; Log10 Concentration −6.0): 90%
Mean Optical Densities ([5]; Log10 Concentration −7.0): 1.658
Percent Growth ([5]; Log10 Concentration −7.0): 91%
Mean Optical Densities ([5]; Log10 Concentration −8.0): 1.654
Percent Growth ([5]; Log10 Concentration −8.0): 91%
GI50 [6]: 1790 nM
TGI [6]: 3.18E−06
Mean Optical Densities ([6]; Log10 Concentration −4.0): 0.151
Percent Growth ([6]; Log10 Concentration −4.0): −67%
Mean Optical Densities ([6]; Log10 Concentration −5.0): −0.041
Percent Growth ([6]; Log10 Concentration −5.0): −100%
Mean Optical Densities ([6]; Log10 Concentration −6.0): 1.679
Percent Growth ([6]; Log10 Concentration −6.0): 101%
Mean Optical Densities ([6]; Log10 Concentration −7.0): 1.515
Percent Growth ([6]; Log10 Concentration −7.0): 87%
Mean Optical Densities ([6]; Log10 Concentration −8.0): 1.585
Percent Growth ([6]; Log10 Concentration −8.0): 93%
CC50 [6, 9]: 5640 nM
GI50 [7]: 1060 nM
TGI [7]: 2.24E−06
Mean Optical Densities ([7]; Log10 Concentration −4.0): 0.145
Percent Growth ([7]; Log10 Concentration −4.0): −74%
Mean Optical Densities ([7]; Log10 Concentration −5.0): −0.008
Percent Growth ([7]; Log10 Concentration −5.0): −100%
Mean Optical Densities ([7]; Log10 Concentration −6.0): 0.711
Percent Growth ([7]; Log10 Concentration −6.0): 54%
Mean Optical Densities ([7]; Log10 Concentration −7.0): 0.737
Percent Growth ([7]; Log10 Concentration −7.0): 63%
Mean Optical Densities ([7]; Log10 Concentration −8.0): 0.713
Percent Growth ([7]; Log10 Concentration −8.0): 55%
CC50 [7, 9]: 4740 nM
GI50 [8]: 1720 nM
TGI [8]: 3.12E−06
Mean Optical Densities ([8]; Log10 Concentration −4.0): 0.329
Percent Growth ([8]; Log10 Concentration −4.0): −36%
Mean Optical Densities ([8]; Log10 Concentration −5.0): 0.011
Percent Growth ([8]; Log10 Concentration −5.0): −98%
Mean Optical Densities ([8]; Log10 Concentration −6.0): 1.255
Percent Growth ([8]; Log10 Concentration −6.0): 96%
Mean Optical Densities ([8]; Log10 Concentration −7.0): 1.267
Percent Growth ([8]; Log10 Concentration −7.0): 97%
Mean Optical Densities ([8]; Log10 Concentration −8.0): 1.285
Percent Growth ([8]; Log10 Concentration −8.0): 100%
